Data: US8158657B2, “Heterocycles substituted pyridine derivatives and antifungal agent containing thereof” (Eisai R&D Management Co., Ltd., priority 2005, dated 2012)
In brackets after ≈: the same amount, converted by molar mass.

How the values were obtained:
[1] = test system: C. albicans CAF2-1 strain; test: Anti-Candida activity, MIC measurement; format: cell-based; settings: CAF21STRAIN, C. albicans CAF2-1, RPMI1640, 42-48 hours at 35° C., visual inspection, read-out: Anti-Candida Activity (minimum inhibitory concentration, MIC)
Protocol: (§1) For the C. albicans CAF2-1 strain, a fungal suspension from a standing culture for 48 hours at 30° C. in a Sabouraud dextrose liquid culture medium (SDB) was diluted with RPMI1640 medium to adjust a fungal suspension of 1.2×10^3 cells/mL. For the A. fumigatus Tsukuba strain, −80° C. stored strain was diluted with RPMI1640 medium to adjust to a fungal suspension of 4.5×10^3 cells/mL.
(§2) Using a U-bottomed 96 well plate, 8 samples/plate (A to H) of sample dilution solutions were prepared. On the 2nd to 12th rows were dispensed 10 μL of dimethyl sulfoxide solution. Weighted sample was dissolved in dimethyl sulfoxide to prepare a 2.5 mg/mL solution, 20 μL of this solution was added to the first row of the prepared plate, and 12 steps of two-fold step dilutions (10 μL of solution+10 μL of dimethyl sulfoxide solution) were performed on the plate. This sample dilution solution was dispensed in the amount of 1 μL to a flat-bottomed 96 well plate for MIC measurement to prepare a sample dilution plate.
(§3) The fungal suspension prepared in (1) was used in the amount of 99 μL/well to inoculate the flat-bottomed 96 well plate containing 1 μL/well of the test compound dilution prepared in (2), and a standing culture was carried out aerobically for 42-48 hours at 35° C.

[2] = test system: A. fumigatus Tsukuba strain; test: Anti-Aspergillus activity, MIC measurement; format: cell-based; settings: RPMI1640, 42-48 hours at 35° C., visual inspection, read-out: Anti-Aspergillus Activity (minimum inhibitory concentration, MIC)
Protocol: as §1, §2, §3

SMILES	MIC [1]	MIC [2]
Cc1cccc(OCc2ccc(Cc3cc(-c4cccnc4N)on3)cc2)n1 [Example 3, 3-(3-(4-(6-Methyl-pyridin-2-yloxymethyl)-benzyl)-isoxazol-5-yl)-pyridin-2-ylamine]	0.1 µg/mL (≈ 0.269 µM)	0.78 µg/mL (≈ 2.09 µM)
CCCCOCc1ccc(Cc2cc(-c3cccnc3N)on2)cc1 [Example 4, 3-(3-(4-Butoxymethyl-benzyl)-isoxazol-5-yl)-pyridin-2-ylamine]	0.2 µg/mL (≈ 0.593 µM)	0.39 µg/mL (≈ 1.16 µM)
Nc1ncccc1-c1cc(Cc2ccc(OCc3ccccc3F)cc2)no1 [Example 5, 3-(3-(4-(2-Fluoro-benzyloxy)-benzyl)-isoxazol-5-yl)-pyridin-2-ylamine]	0.39 µg/mL (≈ 1.04 µM)	0.39 µg/mL (≈ 1.04 µM)
Nc1ncccc1-c1cc(Cc2ccc(OCc3cccc(F)c3)cc2)no1 [Example 6, 3-(3-(4-(3-Fluoro-benzyloxy)-benzyl)-isoxazol-5-yl)-pyridin-2-ylamine]	0.39 µg/mL (≈ 1.04 µM)	0.39 µg/mL (≈ 1.04 µM)
Nc1ncccc1-c1cc(Cc2ccc(OCc3ccc(F)cc3)cc2)no1 [Example 7, 3-(3-(4-(4-Fluoro-benzyloxy)-benzyl)-isoxazol-5-yl)-pyridin-2-ylamine]	1.56 µg/mL (≈ 4.16 µM)	0.2 µg/mL (≈ 0.533 µM)
Nc1ncccc1-c1cc(Cc2ccc(OCC3CC3)cc2)no1 [Example 8, 3-(3-(4-Cyclopropylmethoxy-benzyl)-isoxazol-5-yl)-pyridin-2-ylamine]	1.56 µg/mL (≈ 4.85 µM)	0.78 µg/mL (≈ 2.43 µM)
Cc1cccc(COc2ccc(Cc3cc(-c4cccnc4N)on3)cc2)n1 [Example 10, 3-(3-(4-(6-Methyl-pyridin-2-ylmethoxy)-benzyl)-isoxazol-5-yl)-pyridin-2-ylamine]	0.39 µg/mL (≈ 1.05 µM)	0.78 µg/mL (≈ 2.09 µM)
Nc1ccc(-c2cc(Cc3ccc(OCc4ccccc4F)cc3)no2)c(N)n1 [Example 18, 3-(3-(4-(2-Fluoro-benzyloxy)-benzyl)-isoxazol-5-yl)-pyridin-2,6-diamine]	1.56 µg/mL (≈ 4 µM)	0.78 µg/mL (≈ 2 µM)
Nc1ccc(-c2cc(Cc3ccc(OCc4cccc(F)c4)cc3)no2)c(N)n1 [Example 19, 3-(3-(4-(3-Fluoro-benzyloxy)-benzyl)-isoxazol-5-yl)-pyridin-2,6-diamine]	0.78 µg/mL (≈ 2 µM)	0.39 µg/mL (≈ 0.999 µM)
Nc1ccc(-c2cc(Cc3ccc(OCc4ccc(F)cc4)cc3)no2)c(N)n1 [Example 20, 3-(3-(4-(4-Fluoro-benzyloxy)-benzyl)-isoxazol-5-yl)-pyridin-2,6-diamine]	0.78 µg/mL (≈ 2 µM)	0.2 µg/mL (≈ 0.512 µM)
Nc1ccc(-c2cc(Cc3ccc(OCC4CC4)cc3)no2)c(N)n1 [Example 21, 3-(3-(4-Cyclopropylmethoxy-benzyl)-isoxazol-5-yl)-pyridin-2,6-diamine]	1.56 µg/mL (≈ 4.64 µM)	0.78 µg/mL (≈ 2.32 µM)
Nc1ccc(-c2cc(Cc3ccc(OCc4ccccn4)cc3)no2)c(N)n1 [Example 22, 3-(3-(4-(Pyridin-2-ylmethoxy)-benzyl)-isoxazol-5-yl)-pyridin-2,6-diamine]	0.2 µg/mL (≈ 0.536 µM)	0.39 µg/mL (≈ 1.04 µM)
Cc1cccc(COc2ccc(Cc3cc(-c4ccc(N)nc4N)on3)cc2)n1 [Example 23, 3-(3-(4-(6-Methyl-pyridin-2-ylmethoxy)-benzyl)-isoxazol-5-yl)-pyridin-2,6-diamine]	0.78 µg/mL (≈ 2.01 µM)	1.56 µg/mL (≈ 4.03 µM)
COCc1ccc(-c2cc(Cc3ccc(OCc4ccccc4)cc3)no2)c(N)n1 [Example 26, 3-(3-(4-Benzyloxy-benzyl)-isoxazol-5-yl)-6-methoxymethyl-pyridin-2-ylamine]	0.78 µg/mL (≈ 1.94 µM)	0.78 µg/mL (≈ 1.94 µM)
Nc1ccc(-c2cc(Cc3ccc(OCc4ccccc4)cc3)no2)cn1 [Example 28, 5-(3-(4-Benzyloxy-benzyl)-isoxazol-5-yl)-pyridin-2-ylamine]	> 25 µg/mL	0.39 µg/mL (≈ 1.09 µM)
Nc1ncccc1-c1cnn(Cc2ccc(Oc3ccccc3)cc2)c1 [Example 34, 3-(1-(4-Phenoxy-benzyl)-1H-pyrazol-4-yl)-pyridin-2-ylamine]	0.78 µg/mL (≈ 2.28 µM)	0.39 µg/mL (≈ 1.14 µM)
Nc1ncccc1-c1cnn(Cc2cccc(Oc3ccccc3)c2)c1 [Example 35, 3-(1-(3-Phenoxy-benzyl)-1H-pyrazol-4-yl)-pyridin-2-ylamine]	0.2 µg/mL (≈ 0.584 µM)	1.56 µg/mL (≈ 4.56 µM)
Nc1ncccc1-n1cc(Cc2ccc(OCc3ccccc3)cc2)cn1 [Example 39, 3-(4-(4-Benzyloxy-benzyl)-pyrazol-1-yl)-pyridin-2-ylamine]	3.13 µg/mL (≈ 8.78 µM)	3.13 µg/mL (≈ 8.78 µM)
Cc1ccc(COc2ccc(Cc3cc(-c4cccnc4N)on3)cc2)nc1 [Example 42, 3-(3-(4-(5-Methyl-pyridin-2-ylmethoxy)-benzyl)-isoxazol-5-yl)-pyridin-2-ylamine]	0.78 µg/mL (≈ 2.09 µM)	1.56 µg/mL (≈ 4.19 µM)
Cc1ccc(OCc2ccc(Cc3cc(-c4cccnc4N)on3)cc2)nc1 [Example 44, 3-(3-(4-(5-Methyl-pyridin-2-yloxymethyl)-benzyl)-isoxazol-5-yl)-pyridin-2-ylamine]	1.56 µg/mL (≈ 4.19 µM)	1.56 µg/mL (≈ 4.19 µM)

SMILES	MIC [1]	MIC [2]
Cc1ccc(Cc2ccc(Cc3cc(-c4cccnc4N)on3)cc2)o1 [Example 46, 3-(3-(4-(5-Methyl-furan-2-ylmethyl)-benzyl)-isoxazol-5-yl)-pyridin-2-ylamine]	0.05 µg/mL (≈ 0.145 µM)	0.2 µg/mL (≈ 0.579 µM)
Cc1cc(COc2ccc(Cc3cc(-c4cccnc4N)on3)cc2)ccn1 [Example 47, 3-(3-(4-(2-Methyl-pyridin-4-ylmethoxy)-benzyl)-isoxazol-5-yl)-pyridin-2-ylamine]	0.2 µg/mL (≈ 0.537 µM)	0.39 µg/mL (≈ 1.05 µM)
Cc1ccc(Oc2ccc(Cc3cc(-c4cccnc4N)on3)s2)cc1 [Example 48, 3-(3-(5-p-Tolyloxy-thiophen-2-ylmethyl)-isoxazol-5-yl)-pyridin-2-ylamine]	0.39 µg/mL (≈ 1.07 µM)	0.2 µg/mL (≈ 0.55 µM)
Nc1ncccc1-c1cc(Cc2ccc(OCc3ccncc3)cc2)no1 [Example 49, 3-(3-(4-(Pyridin-4-ylmethoxy)-benzyl)-isoxazol-5-yl)-pyridin-2-ylamine]	0.05 µg/mL (≈ 0.14 µM)	0.39 µg/mL (≈ 1.09 µM)
Nc1ncccc1-c1cc(Cc2ccc(OCc3cccnc3)cc2)no1 [Example 50, 3-(3-(4-(Pyridin-3-ylmethoxy)-benzyl)-isoxazol-5-yl)-pyridin-2-ylamine]	0.78 µg/mL (≈ 2.18 µM)	1.56 µg/mL (≈ 4.35 µM)
Nc1ncccc1-c1cc(Cc2ccc(Oc3ccccc3)nc2)no1 [Example 53, 3-(3-(6-Phenoxy-pyridin-3-ylmethyl)-isoxazol-5-yl)-pyridin-2-ylamine]	0.2 µg/mL (≈ 0.581 µM)	0.2 µg/mL (≈ 0.581 µM)
Nc1ncccc1-c1cc(Cc2ccc(COc3ccc(F)cn3)cc2)no1 [Example 56]	1.56 µg/mL (≈ 4.14 µM)	> 25 µg/mL
Nc1ncccc1-c1cc(Cc2ccn(Cc3ccccc3)c2)no1 [Example 57, 3-(3-(1-Benzyl-1H-pyrrol-3-ylmethyl)-isoxazol-5-yl)-pyridin-2-ylamine]	0.05 µg/mL (≈ 0.151 µM)	0.2 µg/mL (≈ 0.605 µM)
Nc1ncccc1-c1cc(Cc2ccc(COc3cc(F)ccn3)cc2)no1 [Example 59, 3-(3-(4-(4-Fluoro-pyridin-2-yloxymethyl)-benzyl)-isoxazol-5-yl)-pyridin-2-ylamine]	0.39 µg/mL (≈ 1.04 µM)	0.39 µg/mL (≈ 1.04 µM)
Nc1ncccc1-c1cc(Cc2cccc(OCc3ccccn3)c2)no1 [Example 60, 3-(3-(3-(Pyridin-2-ylmethoxy)-benzyl)-isoxazol-5-yl)-pyridin-2-ylamine]	0.2 µg/mL (≈ 0.558 µM)	1.56 µg/mL (≈ 4.35 µM)
Nc1ncccc1-c1cc(Cc2cccc(OCc3ccccc3)c2)no1 [Example 61, 3-(3-(3-Benzyloxy-benzyl)-isoxazol-5-yl)-pyridin-2-ylamine]	0.2 µg/mL (≈ 0.56 µM)	0.39 µg/mL (≈ 1.09 µM)
Nc1ncccc1-c1cc(Cc2ccc(OCc3ccc(Cl)cn3)cc2)no1 [Example 63, 3-(3-(4-(5-Chloro-pyridin-2-ylmethoxy)-benzyl)-isoxazol-5-yl)-pyridin-2-ylamine]	0.78 µg/mL (≈ 1.99 µM)	0.78 µg/mL (≈ 1.99 µM)
Nc1ncccc1-c1cc(Cc2cccc(Oc3ccccc3)c2)no1 [Example 64, 3-(3-(3-Phenoxy-benzyl)-isoxazol-5-yl)-pyridin-2-ylamine]	0.2 µg/mL (≈ 0.582 µM)	0.78 µg/mL (≈ 2.27 µM)
CCCCOc1cccc(Cc2cc(-c3cccnc3N)on2)c1 [Example 65, 3-(3-(3-Butoxy-benzyl)-isoxazol-5-yl)-pyridin-2-ylamine]	0.39 µg/mL (≈ 1.21 µM)	0.78 µg/mL (≈ 2.41 µM)
Nc1ncccc1-c1cc(Cc2cccc(OCC3CC3)c2)no1 [Example 66, 3-(3-(3-Cyclopropylmethoxy-benzyl)-isoxazol-5-yl)-pyridin-2-ylamine]	0.1 µg/mL (≈ 0.311 µM)	0.78 µg/mL (≈ 2.43 µM)
CCCCOc1ccc(Cc2cc(-c3cccnc3N)on2)cc1 [Example 67, 3-(3-(4-Butoxy-benzyl)-isoxazol-5-yl)-pyridin-2-ylamine]	1.56 µg/mL (≈ 4.82 µM)	0.78 µg/mL (≈ 2.41 µM)
Nc1ncccc1-c1cc(Cc2ccc(NCc3ccccc3)cc2)no1 [Example 68, 3-(3-(4-Benzylamino-benzyl)-isoxazol-5-yl)-pyridin-2-ylamine]	0.1 µg/mL (≈ 0.281 µM)	0.39 µg/mL (≈ 1.09 µM)
Nc1ncccc1-c1cc(Cc2ccc(Nc3ccccc3)cc2)no1 [Example 69, 3-(3-(4-Phenylamino-benzyl)-isoxazol-5-yl)-pyridin-2-ylamine]	0.1 µg/mL (≈ 0.292 µM)	0.2 µg/mL (≈ 0.584 µM)
CCCCc1ccc(Cc2cc(-c3cccnc3N)on2)cc1 [Example 70, 3-(3-(4-Butyl-benzyl)-isoxazol-5-yl)-pyridin-2-ylamine]	1.56 µg/mL (≈ 5.07 µM)	0.39 µg/mL (≈ 1.27 µM)
